Measurements as given in US12186435B2, “Sol-gel/hydrogel therapeutic delivery system and methods thereof” (ALBERT EINSTEIN COLLEGE OF MEDICINE, priority 2017, dated 2025).
Entries after “also recorded” stand apart in the source; their conditions may differ. One block for each compound: values may come before it.

Experiments:
[1] = Evans Blue release from particles in water; type: physicochemical; settings: for release from amine (APTS) doped particles: hydrogel doped with amine groups
Procedure: FIGS. 18A-18B. Curcumin (A) and (B) Evans Blue APTS doped gels. The gels were doped with 0.3% APTS. Rate of condensation changed by mM NaOH concentration (75, 60, 30, 12) added prior to condensation step. Increasing gel times for decreasing amount of added NaOH: (2 mins, 30 mins, 15 hours, 1.5 days: 75, 60, 30, 12 mM NaOH). Curcumin release in ethanol; Evans blue release in water. Both plots from top to bottom, respectively, at left side of plots: 75 mM, 60 mM, 30 mM and 12 mM.
Amines are incorporated by mixing hydrolyzed APTS with hydrolyzed TMOS. The resulting sol-gel monolith is loaded with the water soluble dye Evans Blue which has four negatively charged groups.

[2] = Release of NACSNO and GSNO from particles into aqueous buffer; type: physicochemical; settings: for release from original rapid gelation platform: deliverable added before condensation, aqueous buffer
[3] = in methanol
[4] = Release of fluorescent labeled lipids from Br1 particles, with or without 3% octyl-TMOS doping; type: physicochemical
Excerpt: FIG. 13. Effects of doping del with 3% octyl-TMOS on release of lipids. Plots from top to bottom, respectively: Cholesterol-BDP, Chol/3% Octyl, Palmitate-NBD, and Palm/3% Octyl.
Fluorescent labeled cholesterol and palmytic acid were used to show both loading and release. Procyanidine is a potent antioxidant that is being evaluated for use in the treatment of osteoarthritis.
Effects of Doping Del with 3% Octyl-TMOS on Release of Lipids (FIG. 13)
3% octyl doped gel changed cholesterol release(from 80% released down to 55% released), but had no effect on palmitate release.

[5] = Curcumin release from particles into ethanol or methanol; type: physicochemical
Excerpt: FIG. 2. A comparison of release profiles form curcumin loaded nanoparticles. “Brinker” (Br) is the high-density sol-gel that took 7 days to gel and curcumin added after the gelation is complete. “9d dry” is the original formulation air dried for 9 days. Release is of suspended particles into ethanol or methanol. Plots from top to bottom, respectively: EtOH original, EtOH 9d dry, MeOH Brinker, and EtOH Brinker.
Release from Nanoparticles was Made Via: • the Br(Brinker) method where the curcumin is loaded into the empty Br sol-gel block (slow gelation protocol), • The original hydrogel platform where the curcumin is mixed in the initial pre-condensation mixture which gels much more rapidly than the Br sol-gels, • Curcumin loaded in the original fast gelling platform but the resulting curcumin containing sol-gel is air dried for nine days (to promote enhanced density-decreasing pore size.
The effect of added PEG400 on release rates of NACSNO (SNO derivative of N-acetylcysteine) and curcumin from nanoparticles generated using the new block gel protocol (Universal Drug Delivery Platform). • New protocol in which NACSNO and curcumin are infused into a gel block prepared from TMOS using the standard Brinker method for gelation. Once the gel is loaded with the deliverables, the gel is lyophilized and then milled to produce the loaded nanoparticles. • Four separate gels are prepared for each of the deliverables • One gel has no added PEG whereas the other three have varying amounts of added PEG400. The percentage of added PEG shown in the figures refers to the percentage of PEG added compared to what was added in our original protocol.

[6] = gel block doped with octyl group

SMILES: Cc1cc(-c2ccc(/N=N/c3ccc4c(S(=O)(=O)O)cc(S(=O)(=O)O)c(N)c4c3O)c(C)c2)ccc1/N=N/c1ccc2c(S(=O)(=O)O)cc(S(=O)(=O)O)c(N)c2c1O [Evans Blue]
effect of increasing addition of base prior to condensation on release ([1]; Br sol-gels doped with APTS): increase in release | release from amine (APTS) doped particles [1]: slowed by several orders or magnitude; also recorded: substantially slows release | release from amine (APTS) doped particles ([1]; listed as Evans blue): slows | release from undoped particles ([1]; without amine doping, aqueous environment): immediate and complete; also recorded: near instantaneous

SMILES: CC(C)CCC[C@@H](C)[C@H]1CC[C@H]2[C@@H]3CC=C4C[C@@H](O)CC[C@]4(C)[C@H]3CC[C@]12C [cholesterol]
cholesterol release, released ([4]; 3% octyl doped gel): 55% | cholesterol release, released ([4]; gel without octyl doping (Br1)): 80%

SMILES: CCCCCCCCCCCCCCCC(=O)O [palmitate]
effect of 3% octyl doping on release ([4]; 3% octyl doped gel vs undoped): no effect

Second part, the compound after the results:

release from original rapid gelation platform [2]: rapid release | stability in original rapid gelation platform ([2]; prepared in original rapid gelation platform): unstable
SMILES: N[C@@H](CCC(=O)N[C@@H](CSN=O)C(=O)NCC(=O)O)C(=O)O [GSNO, S-nitrosothiol-GSH]

release from original rapid gelation platform [2]: almost immediate release | effect of octyl group doping on release [2, 6]: slows release
SMILES: CC(=O)N[C@@H](CSN=O)C(=O)O [NACSNO, S-nitrosoN-acetylcysteine]

release from new protocol nanoparticles [3]: slow release
SMILES: COc1ccc2cc([C@H](C)C(=O)O)ccc2c1 [Naproxen]

effect of increasing addition of base prior to condensation on release ([5]; Br sol-gels doped with APTS): increase in release | effect of octyl group doping on release [5, 6]: slows release | effect of APTS on release ([5]; slow gel, >1 day to form): increased | release compared to the original platform and its air dried version ([5]; slow gelling Br protocol, curcumin loaded after gelation): dramatic slow down in release | effect of increasing pH in condensation step on release ([5]; sol-gel doped with 25% PEG400, release in ethanol): increases release
SMILES: COc1cc(/C=C/C(=O)CC(=O)/C=C/c2ccc(O)c(OC)c2)ccc1O [curcumin, Curcumin]
